Residue numbers refer to the chain shown, from its start.
Key:
[1] = tested on: VEGF-induced vascular leakage in SKH1 hairless mice; experiment: In vivo vascular permeability assay (modified Miles assay, VEGF-induced Evans blue extravasation in skin); set-up: species or system mouse; conditions: for decrease in vascular leakage compared to PBS control: 125 μg peptide i.v. retro-orbital 5 min before s.c. VEGF165, Evans blue at 700 nm; for vascular leakage in the absence of VEGF: BSA vehicle sites, 125 μg peptide i.v.
Experimental: To probe whether TR47-66 could induce vascular protective effects in vivo, a modification of the modified Miles assay was used in which vascular permeability is measured by the extravasation of Evans blue dye in the skin induced by local subcutaneous injection of vascular endothelial growth factor (VEGF)165. Immunocompetent SKH1 hairless mice were used to avoid the need for hair removal that often can result in artifactual leakage due to inflammation of the skin. Evans blue extravasation in the skin was quantified using the Odyssey near-infrared fluorescent imager at 700 nm. TR47-66 peptide or the control scrTR47 peptide were injected i.v. in the retro-orbital sinus 5 min before local subcutaneous injection of recombinant murine VEGF or BSA control and 30 min after i.v. administration of Evans blue. In the absence of TR47-66 (PBS control), VEGF induced clearly distinguishable areas of Evans blue extravasation, whereas after injection of BSA vehicle control only the needle points marking the injection site could be observed. Quantification of Evans blue extravasation by near infrared fluorescence at 700 nm eliminated the time consuming need for Evans blue extraction from punch biopsy and provided reliable and reproducible results. […] Thus, like APC, the TR47 peptide causes activation of Rac1, stabilizes endothelial barriers in vitro, and in vivo can markedly reduce vascular leakage. The study was approved by the Institutional Animal Care and Use Committee of The Scripps Research Institute and complied with National Institutes of Health guidelines. SK1H1-E hairless male (6 to 8 weeks old) were from Charles River Labs (Wilmington, Mass.). Vascular permeability was determined using a known VEGF-induced leakage model (Sanna et al., Nat. Chem. Biol. 2006; 2(8):434-441; and Miles et al., J Physiol 1952; 118(2):228-257) with some modifications. Briefly, 100 μL of a sterile-filtered solution containing 0.5% (w/v) Evans blue (Sigma) in 0.9% NaCl (Sigma) was injected in isofluran-anesthetized mice. After 30 min, 50 μL of peptides (125 μg; TR47 or scrTR47) or PBS were injected intravenously in the retro-orbital sinus of mice anesthetized with Ketamin-Xylazin (100 and 10 mg/kg, respectively). After 5 min, mice received subcutaneously 15 μL of 75 ng/injection recombinant mouse VEGF165 (BioVision, Milpitas, Calif.) in 0.1% BSA-PBS (3 sites on the right side of the abdomen) or vehicle (2 sites on the left side). After 30 min, mice were sacrificed, photographed, and Evans blue extravasation in the skin was determined using the Odyssey Imager (LI-COR Biosciences, Lincoln, Nebr.) in the 700 nm channel with 4 mm offset. Quantification of the intensity of the Evans blue dye signal was done using the Odyssey Application Software version 3.0. […]

SEAP-PAR1 [2] = target: T1, SEAP-PAR1 (Homo sapiens, UniProt P25116); experiment: SEAP-PAR1 cleavage reporter on transfected HEK-293 cells (SEAP release); assay type: cell-based; conditions: cells containing wild-type EPCR
T1 construct: we created a full-length PAR-1 construct linked at the N-terminus to an alkaline phosphatase reporter group (SEAP); expressed in transfected cells
T1 sequence (P25116 22-425): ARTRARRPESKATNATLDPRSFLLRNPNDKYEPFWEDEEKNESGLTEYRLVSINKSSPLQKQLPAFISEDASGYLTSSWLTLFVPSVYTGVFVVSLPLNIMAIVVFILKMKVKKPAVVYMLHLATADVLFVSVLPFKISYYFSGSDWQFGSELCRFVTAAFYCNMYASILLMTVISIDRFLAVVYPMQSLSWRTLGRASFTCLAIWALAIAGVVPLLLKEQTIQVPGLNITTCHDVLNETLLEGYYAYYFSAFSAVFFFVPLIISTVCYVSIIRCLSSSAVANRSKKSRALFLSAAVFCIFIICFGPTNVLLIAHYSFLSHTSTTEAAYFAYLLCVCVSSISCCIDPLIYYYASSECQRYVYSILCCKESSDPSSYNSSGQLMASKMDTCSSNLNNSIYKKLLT
From the text: (§1) To facilitate analysis of APC-mediated PAR-1 activation, we created a full-length PAR-1 construct linked at the N-terminus to an alkaline phosphatase reporter group (SEAP). Selection of stable cell lines expressing both endothelial protein C receptor (EPCR) (wt or E86A) and SEAP-PAR1 allowed for a reliable and reproducible analysis of EPCR-dependent PAR-1 activation by APC. Mass-spec analysis of cleavage fragments generated by APC of a synthetic PAR-1 N-terminal tail peptide (TR33-62) identified both Arg^41 and Arg^46 as potential cleavage sites for APC proteolysis, as noted above. […] R41Q-SEAP-PAR1 was cleaved by APC in the presence of EPCR. This surprising result was also obtained for R41A-SEAP PAR1.
(§2) 2009; 113:5970-5978. SEAP-PAR1, either in the presence or absence of wt-EPCR, were transfected into HEK-293 cells to obtain stable cells expressing SEAP-PAR1 or wt-EPCR/SEAP-PAR1. Mutations in SEAP-PAR1 were introduced using the Quickchange method (Agilent). Cells were grown in 96-wells plates to confluency in Dulbeco's modified Eagle media (DMEM): Ham's F-12 (Invitrogen) supplemented with penicillin-streptomycin-glutamine (PSG) (Gibco) and 10% fetal bovine serum (Omega) in a humidified atmosphere at 37° C. and 5% CO2 Cells were washed with Hank's balanced salt solution (HBSS; Invitrogen) supplemented with 1.3 mM CaCl2, 0.6 mM MgCl2 and 0.1% endotoxin free BSA (Calbiochem) and incubated with APC. After 60 min, SEAP release was determined using 1-step PNPP (Pierce). Values were corrected for background activity derived from the same cells incubated in the absence of APC and expressed as a percentage of total SEAP available on the cell membrane.

SEAP-PAR1 [3] = target: T2, SEAP-PAR1 (Homo sapiens, UniProt P25116, R46Q); experiment: as above; assay type: cell-based; conditions: cells with wt-EPCR
T2 construct: we created a full-length PAR-1 construct linked at the N-terminus to an alkaline phosphatase reporter group (SEAP); expressed in transfected cells
T2 sequence (P25116 22-425 R46Q): T1 sequence (P25116 22-425) with R25Q
From the text: as §1, §2

cleavage of wt-PAR1 (SEAP-PAR1) (SEAP-PAR1 [2])	cleavage of R46Q-SEAP-PAR1 (SEAP-PAR1 [3])	Substance	decrease in vascular leakage compared to PBS control [1]	vascular leakage in the absence of VEGF [1]
		NPNDKYEPFWEDEEKNESGL (listed as Homo sapiens) [TR47-66]	45%	Neither TR47-66 nor scrTR47 affected vascular leakage
cleaved	did not eliminate PAR1 cleavage	APC: Activated Protein C, serine protease with anticoagulant and cytoprotective cell signaling activities		
		GDENENEKPNWYELKEPDSF (scrambled sequence) [scr-TR47-66, control scrambled TR47-66 peptide containing scrambled residues 47-66, reference compound]	indiscriminate from PBS control	Neither TR47-66 nor scrTR47 affected vascular leakage
cleaved	efficient cleavage	thrombin		

Source: patent US10273279B2, “Protease activated receptor-1 (PAR1) derived cytoprotective polypeptides and related methods” (THE SCRIPPS RESEARCH INSTITUTE, priority 2011, dated 2019)
